Experimental data from article PMC7041945, “Misfolded proteins bind and activate death receptor 5 to trigger apoptosis during unresolved endoplasmic reticulum stress” (eLife, 2020).

Columns and labels:
[1] = tested on: caspase 8 in HCT116 GFP-Trap immunoprecipitates; experiment: Caspase 8 activity (caspase glo 8) of GFP immunoprecipitates (beads); assay type: cell-based, Homo sapiens
Procedure: (§1) 15 cm dishes were seeded with 4 million HCT116 cells and allowed to recover for 18 hr prior to transfection. Samples were then transfected for 24 hr with the GFP-tagged ER trafficked protein, cytosolic GFP, or empty vector. To harvest apoptotic and living cells for each sample, all media and washes were collected. Cells were scraped in 2 ml of cold PBS and combined with the media and washes. Samples were centrifuged to pellet cells, washed with 1 ml cold PBS, and flash frozen in liquid N2 prior to lysis.
(§2) The cell pellets were resuspended in 750 μl of 30 mM HEPES pH 7.2, 150 mM NaCl, 1% Triton X-100 with 1x Roche protease inhibitor cocktail (if used subsequently for caspase glo 8 assay) or with 5x Roche protease inhibitor cocktail (if used for immunoblotting). The cells were lysed by mechanical shearing through a 25G needle for 13–15 plunges followed by incubation on ice for 30 min. The lysate was centrifuged at 2000xg for 5 min to remove debris and then incubated with 30 μl of GFP-Trap magnetic agarose beads (Chromotek gtma-20) for 4 hr at 4°C. The beads were then washed with 750 μl of lysis buffer for 10 min at 4°C for three rounds.
For measuring caspase activity, a fifth of the beads was resuspended in 40 μl of 30 mM HEPES pH 7.2, 150 mM NaCl, 1% Triton X-100. 10 μl of the resuspended mixture was incubated with 10 ul of the caspase glo 8 luminogenic substrate (Promega #PRG8200) for 45 min at RT before measuring luminescence.

[2] = tested on: caspase 8 in HCT116 lysates; experiment: Caspase 8 activity (caspase glo 8) of cell lysates / IP inputs; assay type: cell-based, Homo sapiens; settings: for average fold change relative to empty: HCT116, rep 1, average of 4 dilutions; for norm RLUs: normalized by lysate quant
Outline: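 HCT116 cells lysed in 30 mM HEPES pH 7.2, 150 mM NaCl, 1% Triton X-100 by needle shearing, 30 min on ice, cleared at 1000xg. Supernatant diluted 1:25-1:100 and incubated 45 min at RT with luminogenic caspase-8 substrate; luminescence read.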

DR5 = experiment: GFP immunoprecipitation: DR5 (FADD, caspase 8) recovered with GFP-tagged protein, Western blot; assay type: cell-based, Homo sapiens; settings: for fraction of DR5 IP'ed: GFP IP
Procedure: as §1, §2
For Western blots, samples were eluted by adding 35 μl of non-reducing SDS gel loading buffer (50 mM Tris-HCl (pH 6.8), 2% SDS, 0.1% bromophenol blue, 10% glycerol) and incubated for 10 min at 70°C. The beads were then magnetically removed from the eluted sample before adding DTT to a final concentration of 25 mM. The entire sample was loaded onto the gel and immunoblotted for DR5, caspase 8, and GFP, in that order.

HCT116 cells = experiment: Annexin V (and SytoxBlue) flow cytometry for apoptosis; assay type: cell-based, Homo sapiens
Outline: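 HCT116 cells transfected with the specified plasmid for 24 hr, trypsinized and allowed 30 min recovery at 37°C. Stained with Annexin V-AlexaFluor 647 (1:20) for 15 min at RT in the dark; apoptotic cell distribution determined by flow cytometry.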

[3] = tested on: XBP1 mRNA in HCT116 cells; experiment: RT-PCR for Xbp1 mRNA splicing; assay type: cell-based, Homo sapiens; settings: HCT116, 24 hr
Procedure: Cells were grown in 6-well plates and harvested with 0.5 ml of TRIzol reagent (Life Technologies) per manufacturer's protocol to extract RNA. […] The reverse transcription product was diluted to 200 μl with 10 mM Tris-HCl pH 8.2 and used at 1:100 dilution for subsequent RT-PCR reactions. 2 μl of cDNA was added to 0.2 μM of forward and reverse primers ([…]; Hs_XBP1_Rev: [NT]), 0.2 mM of each dNTP, 0.5 units of Taq DNA polymerase (Thermo Scientific). The reaction was set at an annealing temperature of 60.5°C with an extension time of 30 s for 26 cycles.

GFP (340+341) = experiment: qPCR of GFP transcript (expression of GFP-tagged construct); assay type: cell-based; settings: Rep 2; for avg. fold induction GFP (340+341) / fold induction GFP (340+341): vs 24 hr cytoGFP (empty traffo)

- Mean ± SEM (IP) ([1]; GFPTrap beads, relative to GFP, n=3): 4.840 ± 0.2227, n=3
- fold change relative to GFP (GFPTrap beads) ([1]; Rep 1): 4.68 fold change
- fold change relative to GFP (GFPTrap beads) ([1]; Rep 2): 4.56 fold change
- fold change relative to GFP (GFPTrap beads) ([1]; Rep 3): 5.28 fold change
- average fold change relative to GFP (GFPTrap beads) ([1]; average of replicates): 4.84 fold change
- GFPTrap beads RLUs ([1]; replicate 1): 329.286 RLUs
- GFPTrap beads RLUs ([1]; replicate 2): 320.842 RLUs
- GFPTrap beads RLUs ([1]; replicate 3): 371.502 RLUs
- 95% confidence interval of difference (IP) ([1]; vs. GFP): 3.209 to 4.472
- Difference between means (IP) ([1]; vs. GFP): 3.840 ± 0.2275
Substance: RHO-GFP: GFP-tagged rhodopsin expressed from plasmid
- caspase 8 activity of immunoprecipitates ([1]; GFP pulldown): enriched for DR5 protein and caspase 8 activity more robustly than INS-GFP
- average fold change relative to empty ([2]; siDR5): 1.375 fold change
- average fold change relative to empty ([2]; siNT): 3.026 fold change
- fold change in caspase 8 activity relative to GFP ([2]; input lysates GFP vs INS vs RHO, Rep1): 3.178 fold
- fold change in caspase 8 activity relative to GFP ([2]; input lysates GFP vs INS vs RHO, Rep2): 3.026 fold
- avg fold change in caspase 8 activity relative to GFP ([2]; input lysates GFP vs INS vs RHO, average of Rep1 and Rep2): 3.102 fold
- Mean ± SEM (lysate inputs) ([2]; lysate inputs, relative to GFP, n=2): 3.102 ± 0.07579, n=2
- average fold change relative to GFP ([2]; rep 2, average of 3 dilutions): 3.178 fold change
- norm RLUs ([2]; rep 2, dilution 0.025): 2013.77 RLUs
- norm RLUs ([2]; rep 2, dilution 0.05): 4641.15 RLUs
- norm RLUs ([2]; rep 2, dilution 0.1): 10576.5 RLUs
- 95% confidence interval of difference (lysate inputs) ([2]; vs. GFP): 1.776 to 2.428
- Difference between means (lysate inputs) ([2]; vs. GFP): 2.102 ± 0.07579
- fraction of DR5 IP'ed (DR5; sheet 2018-04-13 rep 2): 0.05356
- fraction of DR5 IP'ed (DR5; sheet 2018-09-20 rep 1): 0.05459
- fraction IP'ed (DR5; Rep 1 (second series)): 0.05356
- fraction IP'ed (DR5; Rep 2 (second series)): 0.05459
- % IP'ed (DR5; average of all replicates): 5.408%
- fraction IP'ed, average (DR5; average of all replicates): 0.05408
- Mean ± SEM (fraction IP'ed) (DR5; unpaired t test sheet, GFP n=5, MPZ n=3, INS n=2, RHO n=2): 0.05408 ± 0.0005162, n=2
- 95% confidence interval (difference between means) (DR5; vs. GFP, fraction IP'ed): 0.01226 to 0.07547
- Difference between means (DR5; vs. GFP, fraction IP'ed, ± SEM): 0.04386 ± 0.01229
- PARP cleavage and annexin V staining (HCT116 cells; HCT116, transfected 24 hr, Nt or DR5 siRNA): induced PARP cleavage and annexin V staining in a DR5-dependent manner
- Mean ± SEM (siDR5), Annexin V (HCT116 cells; siDR5, N=3): 19 ± 0.033 N=3
- 95% confidence interval of difference, Annexin V (HCT116 cells; siDR5 vs. siNt): -22 to -5.1
- Difference between means, Annexin V (HCT116 cells; siDR5 vs. siNt): -13 ± 3.0
- Mean ± SEM (siNt), Annexin V (HCT116 cells; siNt, N=3): 33 ± 3.0 N=3
- XBP1 mRNA splicing [3]: induced XBP1 mRNA splicing
- 2^-(deltaCq) GFP (340+341) (GFP (340+341); 3 hr, replicate 1): 0.5385
- Cq GFP (340+341) (GFP (340+341); 3 hr, replicate 1): 20.6309
- Cq(sample) - avg Cq(GAPDH), GFP (340+341) (GFP (340+341); 3 hr, replicate 1): 0.893
- 2^-(deltaCq) GFP (340+341) (GFP (340+341); 3 hr, replicate 2): 0.6201
- Cq GFP (340+341) (GFP (340+341); 3 hr, replicate 2): 20.4274
- Cq(sample) - avg Cq(GAPDH), GFP (340+341) (GFP (340+341); 3 hr, replicate 2): 0.6895
- 2^-(deltaCq) GFP (340+341) (GFP (340+341); 3 hr, replicate 3): 0.5059
- Cq GFP (340+341) (GFP (340+341); 3 hr, replicate 3): 20.721
- Cq(sample) - avg Cq(GAPDH), GFP (340+341) (GFP (340+341); 3 hr, replicate 3): 0.9831
- avg. fold induction GFP (340+341) (GFP (340+341); 3 hr, mean of 3 replicates): 0.02018
- fold induction GFP (340+341) (GFP (340+341); 3 hr, replicate 1): 0.01959
- fold induction GFP (340+341) (GFP (340+341); 3 hr, replicate 2): 0.02256
- fold induction GFP (340+341) (GFP (340+341); 3 hr, replicate 3): 0.0184
- 2^-(deltaCq) GFP (340+341) (GFP (340+341); 7 hr, replicate 1): 2.306
- Cq GFP (340+341) (GFP (340+341); 7 hr, replicate 1): 18.4525
- Cq(sample) - avg Cq(GAPDH), GFP (340+341) (GFP (340+341); 7 hr, replicate 1): -1.205
- 2^-(deltaCq) GFP (340+341) (GFP (340+341); 7 hr, replicate 2): 2.483
- Cq GFP (340+341) (GFP (340+341); 7 hr, replicate 2): 18.3457
- Cq(sample) - avg Cq(GAPDH), GFP (340+341) (GFP (340+341); 7 hr, replicate 2): -1.312
- 2^-(deltaCq) GFP (340+341) (GFP (340+341); 7 hr, replicate 3): 2.811
- Cq GFP (340+341) (GFP (340+341); 7 hr, replicate 3): 18.1671
- Cq(sample) - avg Cq(GAPDH), GFP (340+341) (GFP (340+341); 7 hr, replicate 3): -1.4909
- avg. fold induction GFP (340+341) (GFP (340+341); 7 hr, mean of 3 replicates): 0.09215
- fold induction GFP (340+341) (GFP (340+341); 7 hr, replicate 1): 0.08389
- fold induction GFP (340+341) (GFP (340+341); 7 hr, replicate 2): 0.09033
- fold induction GFP (340+341) (GFP (340+341); 7 hr, replicate 3): 0.1022
- avg. 2^-(deltaCq) GFP (340+341) (GFP (340+341); 24 hr, mean of 3 replicates): 71.8905
- 2^-(deltaCq) GFP (340+341) (GFP (340+341); 24 hr, replicate 1): 62.5314
- Cq GFP (340+341) (GFP (340+341); 24 hr, replicate 1): 13.0515
- Cq(sample) - avg Cq(GAPDH), GFP (340+341) (GFP (340+341); 24 hr, replicate 1): -5.967
- 2^-(deltaCq) GFP (340+341) (GFP (340+341); 24 hr, replicate 2): 61.8163
- Cq GFP (340+341) (GFP (340+341); 24 hr, replicate 2): 13.0681
- Cq(sample) - avg Cq(GAPDH), GFP (340+341) (GFP (340+341); 24 hr, replicate 2): -5.95
- 2^-(deltaCq) GFP (340+341) (GFP (340+341); 24 hr, replicate 3): 91.3236
- Cq GFP (340+341) (GFP (340+341); 24 hr, replicate 3): 12.5051
- Cq(sample) - avg Cq(GAPDH), GFP (340+341) (GFP (340+341); 24 hr, replicate 3): -6.513
- avg. fold induction GFP (340+341) (GFP (340+341); 24 hr, mean of 3 replicates): 2.615
- fold induction GFP (340+341) (GFP (340+341); 24 hr, replicate 1): 2.275
- fold induction GFP (340+341) (GFP (340+341); 24 hr, replicate 2): 2.2486
- fold induction GFP (340+341) (GFP (340+341); 24 hr, replicate 3): 3.322
